System: HLA-B*44
Assay: MHC binding assay (UV-ligand exchange, β2m ELISA)
Parameters: species or system human
Details: UV-ligand exchange, β2m ELISA

Peptide exchange (peptide exchange yield, MHC class I binding score)	Substance
“++” (>20% = ++)	335 (KELEATKQY; listed as Homo sapiens) [compound 335]
“++” (>20% = ++)	336 (ASSSGPMRWW; listed as Homo sapiens) [compound 336]
“++” (>20% = ++)	343 (TEFTTVLY; listed as Homo sapiens) [compound 343]
“++++” (>75% = ++++)	346 (VEAPGPVHVYW; listed as Homo sapiens) [compound 346]
“+++” (>50 =+++)	347 (ALNPYQYQY; listed as Homo sapiens) [compound 347]
“+++” (>50 =+++)	350 (GECDVFKEIL; listed as Homo sapiens) [compound 350]
“+++” (>50 =+++)	354 (TEDPTILRI; listed as Homo sapiens) [compound 354]
“+++” (>50 =+++)	356 (EEGRVYLF; listed as Homo sapiens) [compound 356]
“+++” (>50 =+++)	359 (DELFSIALY; listed as Homo sapiens) [compound 359]
“++++” (>75% = ++++)	361 (SENLFFASF; listed as Homo sapiens) [compound 361]
“++++” (>75% = ++++)	365 (SEMNVNMKY; listed as Homo sapiens) [compound 365]
“++” (>20% = ++)	480 (GEVSGLTKDF; listed as Homo sapiens) [compound 480]
“+++” (>50 =+++)	481 (RELQHEHSL; listed as Homo sapiens) [compound 481]
“+++” (>50 =+++)	482 (TEREWADEW; listed as Homo sapiens) [compound 482]
“+++” (>50 =+++)	483 (EENDQSTHKW; listed as Homo sapiens) [compound 483]
“+++” (>50 =+++)	486 (SEDDPILQI; listed as Homo sapiens) [compound 486]
“+++” (>50 =+++)	487 (AEDQLHHSF; listed as Homo sapiens) [compound 487]

Continued, substance first:

Substance	Peptide exchange (peptide exchange yield, MHC class I binding score)
341 (EEIEGKGSFTYF; listed as Homo sapiens) [compound 341]	“+++” (>50 =+++)
344 (EEATGQFHVY; listed as Homo sapiens) [compound 344]	“+++” (>50 =+++)
345 (IEFIHPQAF; listed as Homo sapiens) [compound 345]	“++++” (>75% = ++++)
348 (AEIQGNINHV; listed as Homo sapiens) [compound 348]	“+++” (>50 =+++)
349 (AEQDMRELTY; listed as Homo sapiens) [compound 349]	“+++” (>50 =+++)
351 (EEVNYINTF; listed as Homo sapiens) [compound 351]	“+++” (>50 =+++)
352 (NEVLTYIKF; listed as Homo sapiens) [compound 352]	“++++” (>75% = ++++)
353 (GEIIMQNNW; listed as Homo sapiens) [compound 353]	“++++” (>75% = ++++)
355 (SDMVRFHLF; listed as Homo sapiens) [compound 355]	“++” (>20% = ++)
357 (RELENCFQIQ; listed as Homo sapiens) [compound 357]	“+++” (>50 =+++)
358 (KEADIHFLI; listed as Homo sapiens) [compound 358]	“++++” (>75% = ++++)
360 (AEVPTGVII; listed as Homo sapiens) [compound 360]	“++++” (>75% = ++++)
362 (SEKGVIQVY; listed as Homo sapiens) [compound 362]	“+++” (>50 =+++)
363 (AELDKLTSV; listed as Homo sapiens) [compound 363]	“+++” (>50 =+++)
364 (AETPIQNVI; listed as Homo sapiens) [compound 364]	“+++” (>50 =+++)
366 (AENLFRAF; listed as Homo sapiens) [compound 366]	“++” (>20% = ++)
367 (GEVHPSEMI; listed as Homo sapiens) [compound 367]	“+++” (>50 =+++)
368 (GEFPVRVQV; listed as Homo sapiens) [compound 368]	“++” (>20% = ++)
369 (EEIERFFKL; listed as Homo sapiens) [compound 369]	“+++” (>50 =+++)
370 (YEDLSQKY; listed as Homo sapiens) [compound 370]	“+” (>10% = +)
371 (GELALKKKI; listed as Homo sapiens) [compound 371]	“++” (>20% = ++)
372 (TEGIIMKDF; listed as Homo sapiens) [compound 372]	“++” (>20% = ++)
373 (MEMQKSPVF; listed as Homo sapiens) [compound 373]	“+++” (>50 =+++)
374 (DEVNFLVY; listed as Homo sapiens) [compound 374]	“+” (>10% = +)
478 (SEIEQEIGSL; listed as Homo sapiens) [compound 478]	“+++” (>50 =+++)
479 (AEIQPQTQV; listed as Homo sapiens) [compound 479]	“+++” (>50 =+++)
484 (AEVGFVRFF; listed as Homo sapiens) [compound 484]	“++++” (>75% = ++++)
485 (SEIEDSTKQVF; listed as Homo sapiens) [compound 485]	“+++” (>50 =+++)
488 (TEFPIIKMY; listed as Homo sapiens) [compound 488]	“++” (>20% = ++)
